≈ marks a conversion by molar mass, not a printed value. Like-named read-outs stand apart in the source and are kept apart here.
Legend:
Assay type in all cases: cell-based
[1] = system: P. aeruginosa strain PA14; assay: MIC in wild-type P. aeruginosa strain PA14 (Table 3); conditions: Pseudomonas aeruginosa
P. aeruginosa strain Z61 = assay: MIC in hyperpermeable P. aeruginosa strain Z61 (Table 3); conditions: Pseudomonas aeruginosa
[2] = system: P. aeruginosa strain PA01; assay: MIC in wild-type P. aeruginosa strain PA01 (Table 3); conditions: Pseudomonas aeruginosa
P. aeruginosa [3] = assay: Checkerboard assays (fractional inhibitory concentration indices) with WLBU2 potentiator; conditions: drug combined with WLBU2 potentiator (W2-grafted dextran)
Text: In some embodiments, checkerboard assays can be used to determine if two antimicrobial agents have synergy, additive, or antagonistic effects when dosed together. Checkboard assays determine the interaction and potency of two test articles when used concurrently. Using Lorian methodology, the effect on potency of the combination of antimicrobials in comparison to their individual activities, represented as the Fractional Inhibitory Concentration (FIC) index value. To quantify the interactions between the antimicrobials being tested, the FIC index (the combination of antimicrobials that produced the greatest change from the individual antimicrobial's MIC) value is calculated for each strain and antimicrobial combination: (A/MICA)+(B/MICB)=FICA+FICB=FIC Index, where A and B are the MIC of each antimicrobial in combination (in a single well), and MICA and MICB are the MIC of each antimicrobial individually.

[4] = system: P. aeruginosa strain PA01; assay: Growth (MIC) assay in P. aeruginosa strain PA01; conditions: peptide concentration range 0-5 μM
Protocol: The minimal inhibitory concentrations (MIC) were measured in P. aeruginosa and cell viability in mammalian cells at a peptide concentration range between 0-5 μM. Toxicity was evaluated in NIH 3T3 mouse fibroblasts and Neuro-2a neuroblastoma. To negatively select against tandem peptides that may cause red blood lysis when administered in animals, the peptides were also screened in a hemolysis assay. In the range of concentrations tested, no membrane-active peptide had inhibitory activity against bacteria when not in tandem with dKK (FIG. 2), supporting the rationale of the tandem peptide architecture. At these concentrations, dKK alone also had no activity against P. aeruginosa (FIG. 2). Since it is advantageous to identify antibacterial agents which have narrow-spectrum activity, antibacterial efficacy against other gram-negative bacterial species (E. coli) and a gram-positive bacterial species (S. aureus; FIG. 1B) was also assessed. The best performing tandem peptide was lactoferrin-dKK (LACT-dKK). Lactoferrin peptide ([…], SEQ ID NO: 1) is from a protein in the transferrin family with known membrane interactions with bacteria. […]
For each experiment, P. aeruginosa strain PA01 was started from a frozen glycerol stock and cultured overnight. […] The number of colony forming units (CFU) per mL was determined by titering cultures with known absorbance values. […]

P. aeruginosa [5] = assay: Super-resolution microscopy of membrane association and permeabilization; conditions: fluorescently labeled peptide or potentiator
Text: In order to identify peptides which would improve the penetration of small molecules into bacteria library of 30 peptide-linezolid conjugates was synthesized using antimicrobial peptides curated from literature. Linezolid is a small molecule that is normally unable to kill gram-negative bacteria due to its inability to cross the membrane. The peptide-linezolid library was screened in a growth inhibition assay in P. aeruginosa. […] WLBU2 is part of a family of helical cationic peptides that were designed to specifically kill P. aeruginosa. Other members of this peptide family, WLBU1 and LBU2, were synthesized in tandem with P. aeruginosa targeting peptides (P9b and EKR) and conjugated to linezolid. These peptide-drug conjugates were evaluated for their ability to inhibit P. aeruginosa and cross validated for mammalian cell toxicity.
To visualize membrane permeabilization of WLBU2, P. aeruginosa was incubated with Alexa Fluor 488-labeld WLBU2 potentiator for 15 minutes and subsequently washed 2 times with phosphate buffer solution to remove unbound potentiator. Bacteria were then stained with a membrane dye.

O=C(O)c1cn(C2CC2)c2cc(N3CCNCC3)c(F)cc2c1=O [Ciprofloxacin]
MIC ([1]; P. aeruginosa strain PA14, read-out: MIC): 0.5 µg/mL (≈ 1.51 µM) | MIC (P. aeruginosa strain Z61): < 0.25 µg/mL | MIC ([2]; P. aeruginosa strain PA01, read-out: MIC): 2 µg/mL (≈ 6.04 µM)

CC(=O)NC[C@H]1CN(c2ccc(N3CCOCC3)c(F)c2)C(=O)O1 [Linezolid]
MIC ([1]; PA14): > 128 µg/mL | MIC (P. aeruginosa strain Z61): 8 µg/mL (≈ 23.7 µM) | MIC ([2]; PA01): > 128 µg/mL

CO[C@@H]1[C@@H](OC(N)=O)[C@@H](O)[C@H](Oc2ccc3c(O)c(NC(=O)c4ccc(O)c(CC=C(C)C)c4)c(=O)oc3c2C)OC1(C)C [novobiocin]
fractional inhibitory concentration indices (FICIs), interaction with WLBU2 potentiator (P. aeruginosa [3]): synergy

C=C[C@]1(C)C[C@@H](OC(=O)CS[C@@H]2C[C@H]3CC[C@@H](C2)N3C)[C@]2(C)[C@H](C)CC[C@]3(CCC(=O)[C@H]32)[C@@H](C)[C@@H]1O [retapamulin]
fractional inhibitory concentration indices (FICIs), interaction with WLBU2 potentiator (P. aeruginosa [3]): synergy

D(KLAKLAK)2 (KLAKLAKKLAKLAK; D-amino acids; Synthetic - antimicrobial peptide comprised of D-amino acids) [dKK]
inhibitory activity against bacteria / P. aeruginosa [4]: no activity

RRWVRRVRRWVRRVVRVVRRWVRR (Synthetic WLBU2)
localization in P. aeruginosa (super-resolution microscopy) (P. aeruginosa [5]): able to associate with the membrane and localize to the cytosol
